The values below come from patent US10717733B2, “Haloallylamine indole and azaindole derivative inhibitors of lysyl oxidases and uses thereof” (PHARMAXIS LTD., priority 2016, dated 2020).

For orientation: IC50 means the concentration needed to halve the response being measured.

Counter-ions that a name gives are not always drawn.

What all share (type): biochemical
One experiment addresses Recombinant human MAO-B (Homo sapiens (Human), UniProt P27338). Description: Inhibition of human recombinant MAO-B. The settings on record: benzylamine 100 μM. Here is the method: Method to Determine the Ability of Compounds of Formula I to Inhibit Human Recombinant MAO-B
The specificity of the compounds of this invention was tested by determining their ability to inhibit MAO-B activities in vitro. Recombinant human MAO-B (0.06 mg/mL; Sigma Aldrich) was used as source of MAO-B enzyme activities. The assay was performed in a similar way as for human SSAO/VAP-1 (Example 66) except, the substrate benzylamine was used at 100 μM.

A further experiment addresses Bovine LOX (Bos taurus (Bovine), UniProt P33072). The experiment can be described thus: LOX inhibition, peroxidase-coupled Amplex Red amine oxidase assay. The settings on record: 30 min preincubation at 37° C., putrescine substrate. From the text:
(§1) Method to Determine the Ability of Compounds of the Invention to Inhibit LOX and LOXL1-4 from Different Sources
Lysyl oxidase (LOX) is an extracellular copper dependent enzyme which oxidizes peptidyl lysine and hydroxylysine residues in collagen and lysine residues in elastin to produce peptidyl alpha-aminoadipic-delta-semialdehydes. […] There are five LOX family members; these are LOX, LOXL1, LOXL2, LOXL3 and LOXL4. LOX and LOXL family members can be acquired as recombinant active proteins from commercial sources, or extracted from animal tissues like bovine aorta, tendons, pig skin; or prepared from cell cultures. The inhibitory effects of the compounds of the present invention were tested against the given LOX-LOXL preparation using a high-throughput coupled colorimetric method (Holt A. and Palcic M., A peroxidase-coupled continuous absorbance plate-reader assay for flavin monoamine oxidases, copper-containing amine oxidases and related enzymes. Nat. Protoc. 2006; 1: 2498-2505). The assay was developed using either 384 or 96 well format. Briefly, in a standard 384 well plate assay 25 μL of a dilution of any of the isoenzymes and orthologues in 1.2 M urea, 50 mM sodium borate buffer (pH 8.2) were added into each well in the presence of 1 μM mofegiline and 0.5 mM pargyline (to inhibit SSAO and MAO-B and MAO-A, respectively). […] of a reaction mixture containing twice the KM concentration of putrescine (Sigma Aldrich, e.g. 20 mM for LOX, or 10 mM for LOXL2 and LOXL3), 120 μM Amplex Red (Sigma Aldrich) and 1.5 U/mL horseradish peroxidase (Sigma Aldrich) prepared in 1.2 M urea, 50 mM sodium borate buffer (pH 8.2) were then added to the corresponding wells. The above volumes were doubled in the case of 96 wells plate. The fluorescence (RFU) was read every 2.5 min for 30 min at a range of temperatures from 37° to 45° C., excitation 565 nm and emission 590 (Optima; BMG labtech). The slope of the kinetics for each well was calculated using MARS data analysis software (BMG labtech) and this value was used to deduce the IC50 value (Dotmatics).

Experiment [1] concerns the target human recombinant SSAO/VAP-1 (Homo sapiens (Human), UniProt Q16853). Description: Inhibition of human recombinant SSAO/VAP-1 amine oxidase activity. The settings on record: 30 min preincubation at 37° C., 600 μM benzylamine. The protocol:
Method to Determine the Ability of Compounds of Formula I to Inhibit Human Recombinant SSAO/VAP-1
Human recombinant SSAO/VAP-1 amine oxidase activity was determined using the coupled colorimetric method as described for monoamine oxidase, copper-containing amine oxidases and related enzymes (Holt A. and Palcic M., A peroxidase-coupled continuous absorbance plate-reader assay for flavin monoamine oxidases, copper-containing amine oxidases and related enzymes. Nat Protoc 2006; 1: 2498-2505). Briefly, a cloned cDNA template corresponding to residues 34-763 of human SSAO/VAP-1, and incorporating a mouse Ig kappa (κ) signal sequence, N-terminal flag epitope tag and tobacco etch virus (TEV) cleavage site, was assembled in a mammalian expression vector (pLO-CMV) by Geneart AG. This vector containing human SSAO/VAP-1 residues was transfected into CHO-K1 glycosylation mutant cell line, Lec 8. A clone stably expressing human SSAO/VAP-1 was isolated and cultured in large scale. Active human SSAO/VAP-1 was purified and recovered using immunoaffinity chromatography. This was used as the source for SSAO/VAP-1 activity. A high-throughput colorimetric assay was developed using either 96 or 384 well format. Briefly, in a standard 96 well plate assay 50 μL of purified human SSAO/VAP-1 (0.25 μg/mL) in 0.1 M sodium phosphate buffer (pH 7.4) was added into each well. Test compounds were dissolved in DMSO and tested in a Concentration Response Curve (CRC) with 4-11 data points, typically in the micromolar or nanomolar range after incubation with human SSAO/VAP-1 for 30 min at 37° C. After 30 min incubation, 50 μL of the reaction mixture containing 600 μM benzylamine (Sigma Aldrich), 120 μM Amplex Red (Sigma Aldrich) and 1.5 U/mL horseradish peroxidase (Sigma Aldrich) prepared in 0.1 M sodium phosphate buffer (pH 7.4) were added to the corresponding well. The fluorescence unit (RFU) was read every 2.5 min for 30 min at 37° C. excitation 565 nm and emission 590 (Optima; BMG labtech). The slope of the kinetics for each well was calculated using MARS data analysis software (BMG labtech) and this value was used to deduce the IC50 value (Dotmatics).

The next experiment addresses Human LOXL2 (Homo sapiens (Human), UniProt Q9Y4K0). The experiment can be described thus: LOXL2 inhibition, peroxidase-coupled Amplex Red amine oxidase assay. As to conditions: 30 min preincubation at 37° C., putrescine substrate.
Source text: as §1
Lysyl oxidase (LOX) is an extracellular copper dependent enzyme which oxidizes peptidyl lysine and hydroxylysine residues in collagen and lysine residues in elastin to produce peptidyl alpha-aminoadipic-delta-semialdehydes. […] There are five LOX family members; these are LOX, LOXL1, LOXL2, LOXL3 and LOXL4. LOX and LOXL family members can be acquired as recombinant active proteins from commercial sources, or extracted from animal tissues like bovine aorta, tendons, pig skin; or prepared from cell cultures. The inhibitory effects of the compounds of the present invention were tested against the given LOX-LOXL preparation using a high-throughput coupled colorimetric method (Holt A. and Palcic M., A peroxidase-coupled continuous absorbance plate-reader assay for flavin monoamine oxidases, copper-containing amine oxidases and related enzymes. Nat. Protoc. 2006; 1: 2498-2505). The assay was developed using either 384 or 96 well format. Briefly, in a standard 384 well plate assay 25 μL of a dilution of any of the isoenzymes and orthologues in 1.2 M urea, 50 mM sodium borate buffer (pH 8.2) were added into each well in the presence of 1 μM mofegiline and 0.5 mM pargyline (to inhibit SSAO and MAO-B and MAO-A, respectively). Test compounds were dissolved in DMSO and tested in a Concentration Response Curve (CRC) with 11 data points, typically in the micromolar or nanomolar range after incubation with the enzyme for 30 min at 37° C. Twenty five L of a reaction mixture containing twice the KM concentration of putrescine (Sigma Aldrich, e.g. 20 mM for LOX, or 10 mM for LOXL2 and LOXL3), 120 μM Amplex Red (Sigma Aldrich) and 1.5 U/mL horseradish peroxidase (Sigma Aldrich) prepared in 1.2 M urea, 50 mM sodium borate buffer (pH 8.2) were then added to the corresponding wells. The above volumes were doubled in the case of 96 wells plate. The fluorescence (RFU) was read every 2.5 min for 30 min at a range of temperatures from 37° to 45° C., excitation 565 nm and emission 590 (Optima; BMG labtech). The slope of the kinetics for each well was calculated using MARS data analysis software (BMG labtech) and this value was used to deduce the IC50 value (Dotmatics).

Bovine LOX, sequence (P33072 170-418): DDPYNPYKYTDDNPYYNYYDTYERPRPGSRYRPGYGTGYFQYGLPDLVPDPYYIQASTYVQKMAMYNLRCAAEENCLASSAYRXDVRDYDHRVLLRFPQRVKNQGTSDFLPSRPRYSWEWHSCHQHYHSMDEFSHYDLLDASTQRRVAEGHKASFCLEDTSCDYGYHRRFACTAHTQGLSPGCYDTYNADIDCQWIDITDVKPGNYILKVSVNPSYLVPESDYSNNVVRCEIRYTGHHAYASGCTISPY
Human LOXL2, sequence (Q9Y4K0 26-774): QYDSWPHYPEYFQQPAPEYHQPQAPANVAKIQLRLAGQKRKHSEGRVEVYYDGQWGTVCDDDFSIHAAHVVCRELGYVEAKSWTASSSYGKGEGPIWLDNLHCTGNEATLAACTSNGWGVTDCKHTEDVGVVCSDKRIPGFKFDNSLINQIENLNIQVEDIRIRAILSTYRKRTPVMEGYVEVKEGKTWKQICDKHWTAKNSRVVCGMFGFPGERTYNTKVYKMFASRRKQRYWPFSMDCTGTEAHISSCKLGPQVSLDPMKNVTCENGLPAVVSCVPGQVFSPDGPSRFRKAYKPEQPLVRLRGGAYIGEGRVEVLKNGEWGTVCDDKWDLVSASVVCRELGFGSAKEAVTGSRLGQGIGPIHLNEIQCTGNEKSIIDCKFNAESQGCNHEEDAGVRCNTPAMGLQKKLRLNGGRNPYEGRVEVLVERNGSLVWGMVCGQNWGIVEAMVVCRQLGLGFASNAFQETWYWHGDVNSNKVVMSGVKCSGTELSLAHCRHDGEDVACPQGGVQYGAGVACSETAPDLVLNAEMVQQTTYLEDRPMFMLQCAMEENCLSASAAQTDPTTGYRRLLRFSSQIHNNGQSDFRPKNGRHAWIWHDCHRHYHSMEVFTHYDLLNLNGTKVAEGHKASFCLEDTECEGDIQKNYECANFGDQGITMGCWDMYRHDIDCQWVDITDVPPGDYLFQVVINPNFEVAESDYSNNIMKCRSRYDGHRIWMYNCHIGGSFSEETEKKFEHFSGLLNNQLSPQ
Recombinant human MAO-B, sequence (P27338 whole entry): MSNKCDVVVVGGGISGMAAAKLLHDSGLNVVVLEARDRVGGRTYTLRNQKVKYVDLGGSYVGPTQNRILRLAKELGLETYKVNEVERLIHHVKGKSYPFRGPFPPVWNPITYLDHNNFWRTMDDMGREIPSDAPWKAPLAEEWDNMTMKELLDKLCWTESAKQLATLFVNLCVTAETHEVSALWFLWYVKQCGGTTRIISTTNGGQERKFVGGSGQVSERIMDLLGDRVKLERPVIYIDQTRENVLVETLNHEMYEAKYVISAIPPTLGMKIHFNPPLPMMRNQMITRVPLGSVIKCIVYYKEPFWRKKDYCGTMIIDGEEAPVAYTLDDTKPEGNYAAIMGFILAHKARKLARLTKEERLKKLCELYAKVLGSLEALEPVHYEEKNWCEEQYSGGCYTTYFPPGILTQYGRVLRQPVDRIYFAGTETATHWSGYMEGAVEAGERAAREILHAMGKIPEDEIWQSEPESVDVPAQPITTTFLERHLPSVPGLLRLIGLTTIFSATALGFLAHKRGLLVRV
human recombinant SSAO/VAP-1, sequence (Q16853 34-763): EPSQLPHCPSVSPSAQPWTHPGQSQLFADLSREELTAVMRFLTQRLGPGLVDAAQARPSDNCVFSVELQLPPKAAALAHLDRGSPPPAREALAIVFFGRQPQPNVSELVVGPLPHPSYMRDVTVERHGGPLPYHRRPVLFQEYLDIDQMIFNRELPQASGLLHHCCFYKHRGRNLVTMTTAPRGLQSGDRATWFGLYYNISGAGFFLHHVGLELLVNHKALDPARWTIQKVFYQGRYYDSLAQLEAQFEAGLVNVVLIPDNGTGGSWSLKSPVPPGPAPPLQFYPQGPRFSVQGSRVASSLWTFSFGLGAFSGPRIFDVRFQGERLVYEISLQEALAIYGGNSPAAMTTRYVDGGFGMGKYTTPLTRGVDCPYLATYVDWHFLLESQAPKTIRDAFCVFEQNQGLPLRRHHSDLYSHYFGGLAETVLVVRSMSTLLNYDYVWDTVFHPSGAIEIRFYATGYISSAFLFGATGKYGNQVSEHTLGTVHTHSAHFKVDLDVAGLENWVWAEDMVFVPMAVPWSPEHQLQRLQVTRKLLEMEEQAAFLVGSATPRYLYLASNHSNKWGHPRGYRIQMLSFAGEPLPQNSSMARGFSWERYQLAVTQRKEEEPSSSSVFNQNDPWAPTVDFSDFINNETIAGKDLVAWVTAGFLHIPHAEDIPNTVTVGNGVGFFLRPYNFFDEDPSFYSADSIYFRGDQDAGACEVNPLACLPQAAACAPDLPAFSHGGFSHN

Take `NC/C=C(\F)Cn1cc(-c2ccc(F)cc2)c2ccccc21` [Compound 1, (Z)-3-fluoro-4-(3-(4-fluorophenyl)-1H-indol-1-yl)but-2-en-1-amine]: the IC50 at Recombinant human MAO-B is more than 3000 nM; against Bovine LOX, more than 300 nM; in experiment [1] it was more than 3000 nM; at Human LOXL2 it was less than 300 nM.
As to `Cc1c(-c2cccc(S(=O)(=O)N(C)C)c2)c2ccccc2n1C/C(F)=C/CN` [Compound 2, (Z)-3-(1-(4-amino-2-fluorobut-2-en-1-yl)-2-methyl-1H-indol-3-yl)-N,N-dimethylbenzenesulfonamide], the half-maximal inhibitory concentration (IC50) at Recombinant human MAO-B is more than 3000 nM; against Bovine LOX, more than 300 nM; in experiment [1] it was more than 3000 nM; at Human LOXL2, less than 300 nM.
On to `Cc1c(-c2ccc(S(=O)(=O)N(C)C)cc2)c2ccccc2n1C/C(F)=C/CN` [Compound 3, (Z)-4-(1-(4-amino-2-fluorobut-2-en-1-yl)-2-methyl-1H-indol-3-yl)-N,N-dimethylbenzenesulfonamide], for which the IC50 on Recombinant human MAO-B is more than 3000 nM; against Bovine LOX it was more than 300 nM; in experiment [1], more than 3000 nM; against Human LOXL2 it was less than 300 nM.
`Cc1c(-c2cccc(S(=O)(=O)N(C)C)c2)c2cccnc2n1C/C(F)=C/CN` [Compound 4, (Z)-3-(1-(4-amino-2-fluorobut-2-en-1-yl)-2-methyl-1H-pyrrolo[2,3-b]pyridin-3-yl)-N,N-dimethylbenzenesulfonamide]: the IC50 was more than 3000 nM at Recombinant human MAO-B, more than 300 nM on Bovine LOX, more than 3000 nM in experiment [1] and less than 300 nM against Human LOXL2.
Consider `COC(=O)c1ccc2c(c1)c(-c1cccc(S(=O)(=O)N(C)C)c1)c(C)n2C/C(F)=C/CN` [Compound 5, Hydrochloride], for which the concentration for half-maximal inhibition (IC50) on Recombinant human MAO-B was more than 3000 nM; on Bovine LOX, more than 300 nM; in experiment [1] it was more than 3000 nM; against Human LOXL2 it was less than 300 nM.
In the case of `Cc1c(-c2cccc(S(=O)(=O)N(C)C)c2)c2cc(C(=O)N(C)C)ccc2n1C/C(F)=C/CN` [Compound 6, (Z)-1-(4-amino-2-fluorobut-2-en-1-yl)-3-(3-(N,N-dimethylsulfamoyl)phenyl)-N,N,2-trimethyl-1H-indole-5-carboxamide], the IC50 on Recombinant human MAO-B was more than 3000 nM; against Bovine LOX it was more than 300 nM; in experiment [1], more than 3000 nM; at Human LOXL2, less than 300 nM.
For the molecule `COC(=O)c1ccc2c(-c3cccc(S(=O)(=O)N(C)C)c3)c(C)n(C/C(F)=C/CN)c2c1` [Compound 7, (Z)-methyl 1-(4-amino-2-fluorobut-2-en-1-yl)-3-(3-(N,N-dimethylsulfamoyl)phenyl)-2-methyl-1H-indole-6-carboxylate], the IC50 at Recombinant human MAO-B was more than 3000 nM; against Bovine LOX it was more than 300 nM; in experiment [1] it was more than 3000 nM; against Human LOXL2, less than 300 nM.
For `Cc1c(-c2cccc(S(=O)(=O)N(C)C)c2)c2cc(C(=O)O)ccc2n1C/C(F)=C/CN` [Compound 8, (Z)-1-(4-amino-2-fluorobut-2-en-1-yl)-3-(3-(N,N-dimethylsulfamoyl)phenyl)-2-methyl-1H-indole-5-carboxylic acid], the IC50 was more than 3000 nM on Recombinant human MAO-B, more than 300 nM against Bovine LOX, more than 3000 nM in experiment [1] and less than 300 nM against Human LOXL2.
`CCS(=O)(=O)c1cccc(-c2c(C(C)C)n(C/C(F)=C/CN)c3ccc(C)nc23)c1` [Compound 113, (Z)-4-(3-(3-(ethylsulfonyl)phenyl)-2-isopropyl-5-methyl-1H-pyrrolo[3,2-b]pyridin-1-yl)-3-fluorobut-2-en-1-amine Dihydrochloride]: the IC50 at Bovine LOX was more than 300 nM; on Human LOXL2, less than 300 nM.
The corresponding values for `CCS(=O)(=O)c1cccc(-c2c(C)n(C/C(F)=C/CN)c3ccc(C)nc23)c1` [Compound 114, (Z)-4-(3-(3-(ethylsulfonyl)phenyl)-2,5-dimethyl-1H-pyrrolo[3,2-b]pyridin-1-yl)-3-fluorobut-2-en-1-amine Dihydrochloride] are more than 300 nM and less than 300 nM.
For `Cc1c(-c2cccc(S(C)(=O)=O)c2)c2nc(CF)ccc2n1C/C(F)=C/CN` [Compound 115, (Z)-3-fluoro-4-(5-(fluoromethyl)-2-methyl-3-(3-(methylsulfonyl)phenyl)-1H-pyrrolo[3,2-b]pyridin-1-yl)but-2-en-1-amine Dihydrochloride], the IC50 at Bovine LOX was more than 300 nM; on Human LOXL2, less than 300 nM.
The corresponding values for `Cc1c(-c2cccc(S(C)(=O)=O)c2)c2nc(C(C)(C)O)ccc2n1C/C(F)=C/CN` [Compound 116, (Z)-2-(1-(4-amino-2-fluorobut-2-en-1-yl)-2-methyl-3-(3-(methylsulfonyl)phenyl)-1H-pyrrolo[3,2-b]pyridin-5-yl)propan-2-ol Dihydrochloride] are more than 300 nM and less than 300 nM.
On the same counts, the results for `Cc1c(-c2cccc(S(=O)(=O)C(C)C)c2)c2nc(C(C)(C)O)ccc2n1C/C(F)=C/CN` [Compound 117, (Z)-2-(1-(4-amino-2-fluorobut-2-en-1-yl)-3-(3-(isopropylsulfonyl)phenyl)-2-methyl-1H-pyrrolo[3,2-b]pyridin-5-yl)propan-2-ol Dihydrochloride] are more than 300 nM and less than 300 nM.
